# Test results as given in paper PMC6934184, “Selective DNA-PKcs inhibition extends the therapeutic index of localized radiotherapy and chemotherapy” (The Journal of Clinical Investigation, 2019).
# System: Huh7 cells
# Assay: Huh7 cells with single doxorubicin-loaded DC M1 bead (SRB cell density, γH2AX Western)
# Format: cell-based, Human
# Protocol: Exponentially growing HAP-1 DNA-PK proficient or deficient cells were seeded into 6-well plates and allowed to re-attach. Cells were then incubated with vehicle (DMSO) or NU5455 (5 µM) 1 hour prior to irradiation and for a further 24 hours post-irradiation. Cells were then washed in PBS and incubated in drug-free medium to allow for colony formation.
# To quantify the number of proliferating versus confluent cells, cells were pulsed with 5-ethynyl-2’-deoxyuridine (EdU), and labeled using the Click-iT Plus EdU Alexa Fluor 647 Flow Cytometry Assay Kit together with FxCycle Violet Stain to label DNA (both Thermo Fisher) following the manufacturer’s instructions. Samples of cells taken from tho se used in the clonogenic assay were used to confirm the percentage of cells in each cell cycle phase.
# Samples were acquired on a Symphony A5 flow cytometer (Becton Dickinson, UK).
# Cell cycle phase status was also confirmed by microscopy, using cells grown on coverslips i n 6-well plates. […] Coverslips were mounted using Prolong Glass with NucBlue (ThermoFisher) and images were acquired on the Leica TCS SP8 confocal fluorescence […]
# Treated cells were fixed with 10% (w/v) trichloroacetic acid (Fisher) at 4°C overnight. Cells were stained with sulphorhodamine B (SRB, 0.4% (w/v) in water), and cell density quantified […]
# by determining the absorbance at 570 nm of SRB stain dissolved in Tris base (10 mM, pH 10.5) using a spectrophotometer (BMG Labtech). […]
# Blood samples were centrifuged at 6700 x g for 3 minutes, the plasma removed and stored at -20°C prior to analysis for drug by HPLC with fluorescence detection. […]
# Samples (20 µl) were applied to a 10 x 0.46 cm Genesis C18 4 µm column (Grace Vydac) fitted with an in-line filter. […] Analytes were detected by fluorescence at 390 nm following excitation at 242 nm. Plasma concentrations were determined using linear standard curves (0.01 µM – 10 µM, R2 > 0.98) generated by extracting compounds from […]
# Readings were taken every 2 hours for the first 10 hours and then at 24 hour intervals. […]
structure (smiles),measurement,setting,value
CN(C(=O)CN1CCOCC1)c1ccc2sc3c(-c4cccc5c(=O)cc(N6CC7CCC(C6)O7)oc45)cccc3c2c1 [NU5455],"inhibition of cell density, single agent","96 hours continuous, NU5455 1 μM or a single doxorubicin-loaded bead",~ 20%
same,"reduction of cell density, combination treatment","96 hours, NU5455 1 μM + single doxorubicin-loaded bead",57.7% ± 2.1%
same,γH2AX protein levels (DNA damage induced by released doxorubicin),"NU5455 1 μM + doxorubicin-loaded bead, 24–96 hours, Western blotting",augment and sustain the DNA damage
